Measurements as given in PMC2972509 (Journal of medicinal chemistry, 2010).
“And” between values parts separate entries of the source, which are not always exact repeats. Equal values may be shown once. “Also recorded” adds a separate entry of the source.

Tests used:
[1] = target: T1, dopamine D4 receptor (Rattus norvegicus, UniProt P30729); experiment: Radioligand competition binding at cloned dopamine D4 receptor; conditions: for D4 Ki, nM ± SEM: [3H]MSP, cloned rat D4 receptor in HEK293 membranes; for Selectivity for D4 over off-target receptors: over D2, D3, 5-HT1A, 5-HT2A, 5-HT2C and sigma1 receptors
T1 sequence (P30729 1-387): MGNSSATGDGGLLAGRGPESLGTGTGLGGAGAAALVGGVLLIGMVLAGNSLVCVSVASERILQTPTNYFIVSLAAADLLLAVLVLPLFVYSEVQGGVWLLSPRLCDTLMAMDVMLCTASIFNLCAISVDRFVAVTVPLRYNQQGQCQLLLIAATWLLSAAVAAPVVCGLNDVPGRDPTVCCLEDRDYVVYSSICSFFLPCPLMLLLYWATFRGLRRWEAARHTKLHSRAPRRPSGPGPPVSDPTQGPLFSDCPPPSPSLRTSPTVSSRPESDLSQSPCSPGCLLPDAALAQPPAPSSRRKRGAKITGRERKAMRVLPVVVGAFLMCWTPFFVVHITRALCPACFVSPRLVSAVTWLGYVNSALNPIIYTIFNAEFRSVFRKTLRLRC

[2] = target: T2, cloned D4 dopamine receptor (Rattus norvegicus, UniProt P30729); experiment: D4 receptor functional assay: decrease in forskolin-stimulated cAMP accumulation; assay type: cell-based; conditions: Gi/o-mediated
T2 sequence (P30729 1-387): T1 sequence (P30729 1-387)

[3] = Preliminary disposition studies in mice; assay type: in vivo; conditions: for Tmax: male, CD1, mouse, plasma, ip; for Maximum brain concentration (mean ± SD) / Maximum plasma concentration (mean ± SD): parent compound, 7 after 30 min, 13 after 15 min

Compound | Fold higher D4 affinity than the 3-methoxy analog 5 [1] | D4 Ki, nM ± SEM [1] | Selectivity for D4 over off-target receptors [1] [fold] | Functional property at D4 receptor [2] | Tmax ([3]; 10 mg/kg) [min] | Time up to which plasma concentrations were consistently detected ([3]; mice, 10 mg/kg i.p.) | Time up to which quantifiable brain levels were consistently evident ([3]; mice, 10 mg/kg i.p.) | Maximum brain concentration (mean ± SD) ([3]; mice, 10 mg/kg i.p.) [µg/g] | Maximum plasma concentration (mean ± SD) ([3]; mice, 10 mg/kg i.p., 10 mg/kg) | Time of mean brain Cmax ([3]; mice, 10 mg/kg i.p.) [min] | Plasma concentration after 30 minutes (below limit of quantitation) ([3]; mice, 10 mg/kg i.p., 0.2 ml plasma) | Maximum plasma concentration (mean ± SD) ([3]; mice, 10 mg/kg i.p.) [µg/mL]
O=C(NCCN1CCN(c2noc3ccccc23)CC1)c1ccc(F)cc1 [Compound 11, N-[2-[4-(1,2-Benzisoxazol-3-yl)piperazin-1-yl]ethyl]-4-fluorobenzamide] | approximately 6 fold | subnanomolar | – | – | – | – | – | – | – | – | – | –
COc1cccc(C(=O)NCCN2CCN(c3ncccc3C#N)CC2)c1 [Compound 7, N-[2-[4-(3-Cyanopyridin-2-yl)piperazin-1-yl]ethyl]-3-methoxybenzamide] | – | nanomolar affinity | > 100 | agonist properties; also recorded: agonists | 30 | up to 60 minutes | up to 30 min | 0.14 ± 0.02 | 0.37 ± 0.02 µg/mL and 0.37 ± 0.21 µg/mL | – | – | –
N#Cc1cccnc1N1CCN(CCNC(=O)c2ccc(F)cc2)CC1 [Compound 13, N-[2-[4-(3-Cyanopyridin-2-yl)piperazin-1-yl]ethyl]-4-fluorobenzamide] | – | subnanomolar; also recorded: nanomolar affinity | > 100 | agonist properties; also recorded: agonists | 15 | – | up to 60 min | 0.47 ± 0.20 | – | 15 | less than 0.1 µg/mL | 0.13 ± 0.10
